Data on 27 molecules can be found in patent US11780826B2 (Amgen Inc., priority 2017, dated 2023).

This assay concerns Bovine cardiac myofibrils. As to the kind of experiment: In vitro model of dose-dependent myofibril ATPase modulation (AC1.4, pyruvate kinase/lactate dehydrogenase-coupled ATPase assay at pCa25). The format is biochemical. The following applies: concentration at which ATPase activity was 1.4-fold higher than the bottom of the dose curve, mean of a minimum of two independent tests. The method, boiled down:
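Detergent-skinned bovine cardiac myofibrils (typically 0.25-1.0 mg/ml) in Ca-buffered (EGTA/CaCl2) PK/LDH-coupled ATPase assay: 12 mM K-PIPES pH 6.80, 2 mM MgCl2, 1 mM ATP, 1 mM DTT, 0.5 mM NADH, 1.5 mM PEP. Hydrolysis followed at 340 nm; dose response fit to 4-parameter equation; AC1.4 is mean of ≥2 tests.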
Consider `COc1ccc(S(C)(=O)=O)cc1C(=O)N1CCCC[C@@H]1C(=O)N[C@@H](c1ccc(C(F)(F)F)cc1F)C1CC1` [Example 646, (2R)-N-((R)-cyclopropyl(2-fluoro-4-(trifluoromethyl)phenyl)methyl)-1-(2-methoxy-5-(methylsulfonyl)benzoyl)-2-piperidinecarboxamide], for which the AC1.4 came to 4.377 µM.
In the case of `CS(=O)(=O)c1cccc(C(=O)N2C[C@@H](F)C[C@@H]2C(=O)N[C@@H](c2ccc(C(F)(F)F)cc2)C2COC2)c1` [Example 546, (4S)-4-fluoro-1-(3-(methylsulfonyl)benzoyl)-N-((R)-3-oxetanyl(4-(trifluoromethyl)phenyl)methyl)-D-prolinamide] it was 2.6257 µM.
Molecule `N#CC1CN(S(=O)(=O)c2cccc(C(=O)N3C[C@H]4C[C@H]4[C@@H]3C(=O)NCc3ccc(C(F)(F)F)cc3)c2)C1` [Example 5] showed an AC1.4 of 0.01655 µM.
On to `N#CC1CN(S(=O)(=O)N2CCC[C@H](C(=O)N3CCC[C@@H]3C(=O)NC(CO)c3ccc(C(F)(F)F)cc3)C2)C1` (stereo partly drawn) [Example 134, 1-(((3S)-1-((3-cyano-1-azetidinyl)sulfonyl)-piperidinyl)carbonyl)-N-(-2-hydroxy-1-(4-(trifluoromethyl)phenyl)ethyl)-D-prolinamide], for which the AC1.4 was determined as 0.2198 µM.
The molecule `C[C@H](O)[C@@H](NC(=O)[C@H]1C[C@H]2C[C@H]2N1C(=O)c1cccc(S(C)(=O)=O)c1)c1cc(F)c(Cl)cc1F` [Example 405, (1R,3R,5R)-N-((1S,2S)-1-(4-chloro-2,5-difluorophenyl)-2-hydroxypropyl)-2-(3-(methylsulfonyl)benzoyl)-2-azabicyclo[3.1.0]hexane-3-carboxamide] had an AC1.4 of 1.4065 µM.
Take `COc1ccc(C(C)NC(=O)[C@H]2CCCN2C(=O)[C@H]2CCCN(S(=O)(=O)N3CC(C#N)C3)C2)cc1F` (stereo partly drawn) [Example 585, 1-(((3S)-1-((3-cyano-1-azetidinyl)sulfonyl)-3-piperidinyl)carbonyl)-N-((1R)-1-(3-fluoro-4-methoxyphenyl)ethyl)-D-prolinamide,1-(((3S)-1-((3-cyano-1-azetidinyl)sulfonyl)-3-piperidinyl)carbonyl)-N-((1S)-1-(3-fluoro-4-methoxyphenyl)ethyl)-D-prolinamide]: the AC1.4 is 3.413 µM.
`CCS(=O)(=O)c1cccc(C(=O)N2[C@@H](C(=O)N[C@@H](c3ccc(C(F)(F)F)cc3)C3COC3)C[C@H]3C[C@H]32)c1` [Example 275, (1R,3R,5R)-2-(3-(ethylsulfonyl)benzoyl)-N-((R)-3-oxetanyl(4-(trifluoromethyl)phenyl)methyl)-2-azabicyclo[3.1.0]hexane-3-carboxamide] displayed an AC1.4 of 0.6922 µM.
Turning to `O=C(NCc1ccc(C(F)(F)F)cc1)[C@H]1CCCN1C(=O)[C@H]1CCCN(S(=O)(=O)N2CC(F)(C3CC3)C2)C1` [Example 450, 1-(((3S)-1-((3-cyclopropyl-3-fluoro-1-azetidinyl)sulfonyl)-3-piperidinyl)carbonyl)-N-(4-(trifluoromethyl)benzyl)-D-prolinamide], the AC1.4 was determined as 1.8545 µM.
As for `N#CC1CN(S(=O)(=O)N2CCC[C@H](C(=O)N3C[C@H](F)C[C@@H]3C(=O)NCc3ccc(C(F)(F)F)cc3)C2)C1` [Example 216, (4R)-1-(((3S)-1-((3-cyano-1-azetidinyl)sulfonyl)-3-piperidinyl)carbonyl)-4-fluoro-N-(4-(trifluoromethyl)benzyl)-D-prolinamide], the AC1.4 was determined as 0.4746 µM.
Consider `N#CC1CN(S(=O)(=O)N2C[C@H]3C[C@@H]2[C@H](C(=O)N2CCC[C@@H]2C(=O)NCc2ccc(C(F)(F)F)cc2F)C3)C1` [Example 103, 1-(((1R,4R,6R)-2-((3-cyano-1-azetidinyl)sulfonyl)-2-azabicyclo[2.2.1]hept-6-yl)carbonyl)-N-(2-fluoro-4-(trifluoromethyl)benzyl)-D-prolinamide], for which the AC1.4 came out at 0.1585 µM.
In the case of `CC[C@@H](NC(=O)[C@H]1CCCN1C(=O)c1cccc(S(=O)(=O)N(C)C)c1)c1ccc(C(F)(F)F)cc1F` [Example 146, 1-(3-(dimethylsulfamoyl)benzoyl)-N-((1R)-1-(2-fluoro-4-(trifluoromethyl)phenyl)propyl)-D-prolinamide], the AC1.4 is 0.2474 µM.
The same measure for `O=C(NCc1ccc(C(F)(F)F)cc1)[C@H]1CCCN1C(=O)[C@H]1CCCN(S(=O)(=O)N2CC(C3CCC3)C2)C1` [Example 483, 1-(((3S)-1-((3-cyclobutyl-1-azetidinyl)sulfonyl)-3-piperidinyl)carbonyl)-N-(4-(trifluoromethyl)benzyl)-D-prolinamide]: 2.168 µM; for `O=C(N[C@@H](c1cc(F)c(C(F)(F)F)cc1F)C1CC1)[C@H]1C[C@H]2C[C@H]2N1C(=O)c1cc(C2CC2)ccn1` [Example 593, (1R,3R,5R)-N-((R)-cyclopropyl(2,5-difluoro-4-(trifluoromethyl)phenyl)methyl)-2-((4-cyclopropyl-2-pyridinyl)carbonyl)-2-azabicyclo[3.1.0]hexane-3-carboxamide]: 3.49 µM; for `N#CC1CN(S(=O)(=O)N2CCC[C@H](C(=O)N3CCC[C@@H]3C(=O)NCc3cc(Cl)ccc3Cl)C2)C1` [Example 651, 1-(((3S)-1-((3-cyano-1-azetidinyl)sulfonyl)-3-piperidinyl)carbonyl)-N-(2,5-dichlorobenzyl)-D-prolinamide]: 4.4705 µM.
With `C[C@@H](NC(=O)[C@H]1CCCN1C(=O)[C@H]1CCCN(S(=O)(=O)N2CC(C#N)C2)C1)c1cc(F)c(Cl)cc1F` [Example 48, N-((1R)-1-(4-chloro-2,5-difluorophenyl)ethyl)-1-(((3S)-1-((3-cyano-1-azetidinyl)sulfonyl)-3-piperidinyl)carbonyl)-D-prolinamide], the AC1.4 stood at 0.0531 µM.
Molecule `N#CC1CN(S(=O)(=O)c2cccc(C(=O)N3CCC[C@@H]3C(=O)NCc3ncc(Cl)s3)c2)C1` [Example 376, N-((5-chloro-1,3-thiazol-2-yl)methyl)-1-((3-((3-cyano-1-azetidinyl)sulfonyl)phenyl)carbonyl)-D-prolinamide] gave an AC1.4 of 1.2296 µM.
Turning to `CC1(c2cccc(C(=O)N3CCC[C@@H]3C(=O)N[C@@H](c3ccc(C(F)(F)F)cc3F)C3CC3)c2)COC1` [Example 691, N-((R)-cyclopropyl(2-fluoro-4-(trifluoromethyl)phenyl)methyl)-1-(3-(3-methyl-3-oxetanyl)benzoyl)-D-prolinamide], the AC1.4 worked out at 5.3575 µM.
In the case of `CS(=O)(=O)c1cccc(C(=O)N2CCC[C@@H]2C(=O)NC(c2ccc(C(F)(F)F)cc2)C2CNC(=O)C2)c1` (stereo partly drawn) [Example 482] it was 1.945 µM.
`CC[C@@H](NC(=O)[C@H]1CCCN1C(=O)c1cccc(S(=O)(=O)N2CC(C#N)C2)c1)c1ccc(C(F)(F)F)cc1F` [Example 12, 1-(3-((3-cyano-1-azetidinyl)sulfonyl)benzoyl)-N-((1R)-1-(2-fluoro-4-(trifluoromethyl)phenyl)propyl)-D-prolinamide] had an AC1.4 of 0.0216 µM.
Consider `C[C@@H](NC(=O)[C@H]1CCCN1C(=O)[C@H]1CCCN(S(=O)(=O)N2CC(C#N)C2)C1)c1ccc(C(F)F)cc1F` [Example 104, 1-(((3S)-1-((3-cyano-1-azetidinyl)sulfonyl)-3-piperidinyl)carbonyl)-N-((1R)-1-(4-(difluoromethyl)-2-fluorophenyl)ethyl)-D-prolinamide], for which the AC1.4 worked out at 0.1611 µM.
Consider `C[C@@H](NC(=O)[C@H]1CCCN1C(=O)c1cccc(S(=O)(=O)N2CC(C#N)C2)c1)c1ccc(C(F)F)cc1` [Example 120, 1-((3-((3-cyano-1-azetidinyl)sulfonyl)phenyl)carbonyl)-N-((1R)-1-(4-(difluoromethyl)phenyl)ethyl)-D-prolinamide], for which the AC1.4 is 0.1826 µM.
The same measure for `N#CC1CN(S(=O)(=O)N2CCC[C@H](C(=O)N3CCC[C@@H]3C(=O)N[C@H](c3ccc(C(F)(F)F)cc3)C(F)(F)F)C2)C1` [Example 768, 1-(((3S)-1-((3-cyano-1-azetidinyl)sulfonyl)-3-piperidinyl)carbonyl)-N-((1R)-2,2,2-trifluoro-1-(4-(trifluoromethyl)phenyl)ethyl)-D-prolinamide]: 8.033 µM.
`N#CC1CN(S(=O)(=O)c2cccc(C(=O)N3CCC[C@@H]3C(=O)N[C@@H](CO)c3ccc(Cl)c(F)c3)c2)C1` [Example 105, N-((1R)-1-(4-chloro-3-fluorophenyl)-2-hydroxyethyl)-1-(3-((3-cyano-1-azetidinyl)sulfonyl)benzoyl)-D-prolinamide] came in with an AC1.4 of 0.1638 µM.
`N#CC1CN(S(=O)(=O)N2CCC[C@H](C(=O)N3CCC[C@@H]3C(=O)NCc3ccc(F)cc3C(F)(F)F)C2)C1` [Example 652, 1-(((3S)-1-((3-cyano-1-azetidinyl)sulfonyl)-3-piperidinyl)carbonyl)-N-(4-fluoro-2-(trifluoromethyl)benzyl)-D-prolinamide] gave an AC1.4 of 4.5245 µM.
Turning to `O=C(NCc1ccc(C(F)(F)F)cc1)[C@H]1CCCN1C(=O)c1cccc(S(=O)(=O)Cc2ccccc2)c1` [Example 454, 1-(3-(benzylsulfonyl)benzoyl)-N-(4-(trifluoromethyl)benzyl)-D-prolinamide], the AC1.4 is 1.8665 µM.
`CC(C)(C#N)c1cccc(C(=O)N2[C@@H](C(=O)N[C@@H](c3ccc(C(F)(F)F)cc3F)C3COC3)C[C@H]3C[C@H]32)c1` [Example 412, (1R,3R,5R)-2-(3-(2-cyano-2-propanyl)benzoyl)-N-((R)-(2-fluoro-4-(trifluoromethyl)phenyl)(3-oxetanyl)methyl)-2-azabicyclo[3.1.0]hexane-3-carboxamide] showed an AC1.4 of 1.495 µM.
On to `Cc1ccnc(C(=O)N2[C@@H](C(=O)N[C@@H](c3cc(F)c(Cl)cc3F)C3CC3)C[C@H]3C[C@H]32)c1` [Example 702, (1R,3R,5R)-N-((R)-(4-chloro-2,5-difluorophenyl)(cyclopropyl)methyl)-2-((4-methyl-2-pyridinyl)carbonyl)-2-azabicyclo[3.1.0]hexane-3-carboxamide], for which the AC1.4 is 5.6535 µM.
